Measurements as given in paper PMC9358681 (Biochemical pharmacology, 2022).
Values joined by “and” are separate entries in the source; they are usually repeats but may differ in a detail not shown here. Equal values may be shown once. Read-outs that look alike come from different tables or passages of the source.

How the values were obtained:
human A2BAR [1] = target: T1, human A2BAR (Homo sapiens, UniProt P29275); assay: [3H]PSB-603 displacement on CHO-spap-hA2BAR membranes; format: binding
T1 construct: host or cells: CHO-spap
T1 sequence (P29275 1-332): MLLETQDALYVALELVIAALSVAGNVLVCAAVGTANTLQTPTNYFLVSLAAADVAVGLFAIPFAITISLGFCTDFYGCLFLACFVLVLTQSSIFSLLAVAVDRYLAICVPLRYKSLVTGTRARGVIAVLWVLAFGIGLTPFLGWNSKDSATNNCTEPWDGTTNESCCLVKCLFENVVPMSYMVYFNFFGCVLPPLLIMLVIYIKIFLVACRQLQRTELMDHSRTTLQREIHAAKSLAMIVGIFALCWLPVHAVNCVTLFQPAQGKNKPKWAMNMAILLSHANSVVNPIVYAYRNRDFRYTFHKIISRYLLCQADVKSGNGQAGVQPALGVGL

human A2BAR [2] = target: T1, human A2BAR; assay: [3H]PSB-603 competition association assay; format: binding; conditions: for RT: RT = 1/koff; for Kd: read-out: Kinetic KD (koff/kon); for koff: read-out: koff (converted); for kon: read-out: kon (converted)
Method: In all radioligand binding experiments, CHO-spap-hA2BAR membranes were thawed and homogenized using an Ultra Turrax homogenizer at 24,000 rpm (IKA-Werke GmbH & Co.KG, Staufen, Germany), diluted in assay buffer to the desired concentration (10–30 μg per well or Eppendorf tube). All materials were brought to 25 °C, 30 min prior to the experiment. ZM241385 (10 μM) was used to determine nonspecific binding (NSB).
Addition of CHO-spap-hA2BAR membrane aliquots initiated the association. The amount of receptor-bound radioligand was determined at different time points up to 3 hr. After 3 hr the incubation was terminated and samples were obtained as described under “Displacement experiments”.
All competition association data were globally fitted.

human A2BAR [3] = target: T1, human A2BAR; assay: [3H]PSB-603 radioligand washout assay on membranes; format: binding; conditions: 10 × IC50, 2 hr pre-incubation, 4x washed, 25 °C
Method: Were performed at 25 °C and in a total volume of 400 μL. […] Subsequently, the samples were centrifuged at 13200 rpm (16 100g) at 4 °C for 5 min and the supernatant containing unbound ligand was removed. Pellets were resuspended in 1 mL of assay buffer, and samples were incubated for 10 min at 25 °C in the thermomixer. After four centrifugation and washing cycles in total, supernatant was discarded and the membranes were resuspended in a total volume of 400 μL containing 1.5 nM [^3H]PSB-603. After 2 hr at 25 °C incubations were terminated by rapid filtration through GF/C filters using a Brandel harvester and the samples were obtained as described under “Saturation binding experiments”.
Both the washed and the unwashed conditions were assessed. For the washed condition, the unlabeled compounds were incubated with the target for 2 hr, followed by four wash and centrifugation cycles. Subsequently, [^3H]PSB-603 was co-incubated which led to competition of the radioligand with the unlabeled ligand still bound after the washing procedure. For the unwashed condition no washing was performed before the determination of radioligand displacement. Based on the experimental set-up, the long RT compound and the covalent ligand would be predicted to remain bound to A2BARs, as they would not be easily removed during the washing steps, and thus to result in lower radioligand binding.

[4] = target: T2, hA2BAR (CHO-spap-hA2BAR cells) (Homo sapiens, UniProt P29275); assay: Label-free whole-cell washout assay; format: cell-based; conditions: 30 × IC50 antagonist 4 hr, NECA EC80, control without antagonist = 100%
T2 construct: host or cells: CHO-spap
T2 sequence (P29275 1-332): T1 sequence (P29275 1-332)
Method: The assay followed the same initial steps as described in “Determination of pIC50 values for hA2BAR antagonists”. […] Subsequently, wells were washed by aspiration of the medium, followed by the addition of 95 μL fresh serum free medium. For the unwashed cells, the medium was not removed but was pipetted up and down to simulate any mechanical cell stress.
Data were analyzed using GraphPad Prism 8.0.
Subsequently, a washout assay was performed and the cell response to the compounds was monitored and evaluated (Fig. 7). […] For the evaluation of the unwashed condition, the medium was not refreshed but was pipetted up and down in order to mimic the possible mechanical stress induced to the washed cells.

A1 adenosine receptor [5] = target: T3, A1 adenosine receptor (Homo sapiens, UniProt P30542); assay: Radioligand binding, human A1 ([3H]R-PIA, HEK-293); conditions: HEK-293, [3H]R-PIA
T3 sequence (P30542 1-326): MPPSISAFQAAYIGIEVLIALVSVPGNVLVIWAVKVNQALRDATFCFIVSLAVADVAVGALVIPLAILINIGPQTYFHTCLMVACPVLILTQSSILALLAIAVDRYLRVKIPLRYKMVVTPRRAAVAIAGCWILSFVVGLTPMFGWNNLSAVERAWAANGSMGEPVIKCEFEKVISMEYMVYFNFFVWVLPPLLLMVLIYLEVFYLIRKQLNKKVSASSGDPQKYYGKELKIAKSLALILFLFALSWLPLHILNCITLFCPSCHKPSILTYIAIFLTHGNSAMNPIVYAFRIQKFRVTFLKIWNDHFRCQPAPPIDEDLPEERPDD
Description: (§1) The A2B receptor selectivity was generally low, especially at the rat A2B receptor.

A1 adenosine receptor [6] = target: T4, A1 adenosine receptor (Rattus norvegicus, UniProt P25099); assay: Radioligand binding, rat A1 ([3H]R-PIA, HEK-293); conditions: HEK-293, [3H]R-PIA
T4 sequence (P25099 1-326): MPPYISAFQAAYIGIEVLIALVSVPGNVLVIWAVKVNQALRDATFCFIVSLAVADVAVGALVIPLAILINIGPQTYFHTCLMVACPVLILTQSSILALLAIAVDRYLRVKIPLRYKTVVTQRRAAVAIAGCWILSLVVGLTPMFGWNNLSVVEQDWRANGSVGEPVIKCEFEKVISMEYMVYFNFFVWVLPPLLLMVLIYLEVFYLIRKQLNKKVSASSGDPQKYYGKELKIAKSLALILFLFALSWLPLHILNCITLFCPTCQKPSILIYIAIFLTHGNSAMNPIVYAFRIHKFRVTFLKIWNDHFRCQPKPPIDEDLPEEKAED
Description: as §1

A2A adenosine receptor [7] = target: A2A adenosine receptor (Homo sapiens, UniProt P29274); assay: Radioligand binding, human A2A ([3H]CGS21680, HEK-293); conditions: HEK-293, [3H]CGS21680
A2A adenosine receptor [8] = target: A2A adenosine receptor (Rattus norvegicus, UniProt P30543); assay: Radioligand binding, rat A2A ([3H]CGS21680, HEK-293); conditions: rat (r), HEK-293, [3H]CGS21680
A2B adenosine receptor [9] = target: T5, A2B adenosine receptor (Homo sapiens, UniProt P29275); assay: Radioligand binding, human A2B ([125I]I-ABOPX, HEK-293); conditions: HEK-293, [125I]I-ABOPX
T5 sequence (P29275 1-332): T1 sequence (P29275 1-332)

A2B adenosine receptor [10] = target: T6, A2B adenosine receptor (Rattus norvegicus, UniProt P29276); assay: Radioligand binding, rat A2B ([125I]I-ABOPX, HEK-293); conditions: rat (r), HEK-293, [125I]I-ABOPX
T6 sequence (P29276 1-332): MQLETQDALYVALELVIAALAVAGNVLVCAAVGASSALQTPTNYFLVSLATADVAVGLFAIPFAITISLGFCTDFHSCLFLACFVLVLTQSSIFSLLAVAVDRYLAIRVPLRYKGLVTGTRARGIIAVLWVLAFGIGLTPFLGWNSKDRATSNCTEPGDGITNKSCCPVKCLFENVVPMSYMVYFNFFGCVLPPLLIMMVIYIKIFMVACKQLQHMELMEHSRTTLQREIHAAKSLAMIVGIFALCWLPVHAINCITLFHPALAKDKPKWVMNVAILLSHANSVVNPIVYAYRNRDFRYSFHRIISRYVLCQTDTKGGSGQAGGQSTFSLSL

A3 adenosine receptor = target: T7, A3 adenosine receptor (Homo sapiens, UniProt P0DMS8); assay: Radioligand binding, human A3 ([125I]I-AB-MECA, HEK-293); conditions: HEK-293, [125I]I-AB-MECA
T7 sequence (P0DMS8 1-318): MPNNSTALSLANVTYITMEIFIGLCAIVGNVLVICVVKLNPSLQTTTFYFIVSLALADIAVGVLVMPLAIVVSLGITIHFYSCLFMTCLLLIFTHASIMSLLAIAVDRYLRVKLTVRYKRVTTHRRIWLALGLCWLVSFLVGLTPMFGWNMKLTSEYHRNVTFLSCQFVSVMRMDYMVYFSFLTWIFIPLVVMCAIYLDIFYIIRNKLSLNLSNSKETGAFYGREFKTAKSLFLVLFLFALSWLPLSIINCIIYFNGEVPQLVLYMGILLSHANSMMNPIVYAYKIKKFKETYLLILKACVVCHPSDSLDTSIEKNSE
Description: as §1

CHO-spap cells = assay: Label-free whole-cell assay on empty CHO-spap cells; format: cell-based; conditions: NECA 10 pM – 1 μM
Method: After maintaining at room temperature for about 30 min, the E-plate was placed into the recording station housed in a 37 °C and 5% CO2 incubator.

[11] = […] [3H]PSB-603, 2 h, 25 °C, read-out: Ki (converted)
[12] = competing ligand at 1.0-fold IC50, up to 3 hr, 25 °C

Sequence of A2A adenosine receptor (Rattus norvegicus, UniProt P30543) (P30543 whole entry): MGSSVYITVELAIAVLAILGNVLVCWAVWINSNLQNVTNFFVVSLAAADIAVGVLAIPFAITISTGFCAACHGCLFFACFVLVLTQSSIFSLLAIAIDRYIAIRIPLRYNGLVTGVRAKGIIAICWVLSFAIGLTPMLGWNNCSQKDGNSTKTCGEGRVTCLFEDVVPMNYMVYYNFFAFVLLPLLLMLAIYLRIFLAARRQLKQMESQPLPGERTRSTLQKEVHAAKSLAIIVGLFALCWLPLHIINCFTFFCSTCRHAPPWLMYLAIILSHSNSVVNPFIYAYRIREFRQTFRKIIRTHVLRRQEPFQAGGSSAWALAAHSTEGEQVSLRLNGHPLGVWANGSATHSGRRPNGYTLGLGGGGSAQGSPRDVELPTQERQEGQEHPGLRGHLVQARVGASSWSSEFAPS
Sequence of A2A adenosine receptor (Homo sapiens, UniProt P29274) (P29274 whole entry): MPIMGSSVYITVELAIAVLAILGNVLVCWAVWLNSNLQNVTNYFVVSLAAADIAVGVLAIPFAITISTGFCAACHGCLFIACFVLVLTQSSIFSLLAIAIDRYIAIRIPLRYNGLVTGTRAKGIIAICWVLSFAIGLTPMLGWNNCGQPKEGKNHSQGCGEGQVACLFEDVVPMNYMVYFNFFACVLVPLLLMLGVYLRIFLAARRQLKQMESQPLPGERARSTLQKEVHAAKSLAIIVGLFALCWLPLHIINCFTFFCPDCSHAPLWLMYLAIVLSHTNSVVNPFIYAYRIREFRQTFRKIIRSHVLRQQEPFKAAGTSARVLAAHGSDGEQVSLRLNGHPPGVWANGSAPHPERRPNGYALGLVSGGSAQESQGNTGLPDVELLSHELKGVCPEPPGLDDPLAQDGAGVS

Ki (human A2BAR [1]; [11]) [nM]	RT (human A2BAR [2]; [12])	Kd (human A2BAR [2]) [nM]	koff (human A2BAR [2]) [s⁻¹]	kon (human A2BAR [2]) [M⁻¹ s⁻¹]	A2BARs still occupied by ligand after the washing cycles (human A2BAR [3]) [%]	compound removed (washed away) during the washing procedure (human A2BAR [3]) [%]	washout - %AUC, 1x washed (NECA signaling) [4] [%]	washout - %AUC, unwashed (NECA signaling) [4] [%]	Ki (A1 adenosine receptor [5]) [nM]	Ki (A1 adenosine receptor [6]) [nM]	Ki (A2A adenosine receptor [7]) [nM]	Ki (A2A adenosine receptor [8]) [nM]	Ki (A2B adenosine receptor [9]) [nM]	Ki (A2B adenosine receptor [10]) [nM]	Ki (A3 adenosine receptor) [nM]	SMILES	Ki (human A2BAR [1]; Ki) [nM]	Kinetic KD (koff/kon) (human A2BAR [2]; [12])	response to NECA (CHO-spap cells)
2.29	87 min and 87 ± 29 min	1.8 ± 0.62	0.000183	100000	44	56	19 ± 6	10 ± 3								CCCn1c(=O)c2[nH]c(-c3ccc(OCC(=O)Nc4ccc(C(=O)OC)cc4)cc3)nc2n(CCC)c1=O [Compound 17]			
19.9	8 min and 8.0 min and 8.0 ± 0.2 min	10 ± 0.89	0.00208	200000		85	68 ± 7	12 ± 1								CCCn1c(=O)c2[nH]c(-c3ccc(OCC(=O)Nc4ccc(C(=O)NC)cc4)cc3)nc2n(CCC)c1=O [Compound 18]			
3.6		3.8 ± 1.7	0.0011	283000					63.9 ± 16.5	6.55	33.6 ± 0.1	251	5.5 ± 1.2	20	89.9 ± 11.6	CCCn1c(=O)c2[nH]c(-c3ccc(OCC(=O)NCc4ccc(F)cc4)cc3)nc2n(CCC)c1=O [Compound 21, 2-(4-(2,6-dioxo-1,3-dipropyl-2,3,6,7-tetrahydro-1H-purin-8-yl)phenoxy)-N-(4-fluorobenzyl)acetamide]			
15.2	6.1 ± 1.6 min	7.5 ± 3.9	0.00273	367000					27.3 ± 4.9	5.23	64.4 ± 21.2	375	8.5 ± 1.1	21.1	63.9 ± 16.5	CCCn1c(=O)c2[nH]c(-c3ccc(OCC(=O)N[C@H](C)c4ccccc4)cc3)nc2n(CCC)c1=O [Compound 24, (R)-2-(4-(2,6-dioxo-1,3-dipropyl-2,3,6,7-tetrahydro-1H-purin-8-yl)phenoxy)-N-(1-phenylethyl)acetamide]			
8.11	10 ± 2.3 min	8.6 ± 3	0.00162	183000					23.7 ± 4.9	10.4	21 ± 1.8	165	8.2 ± 2.5	20.2	156 ± 15	CCCn1c(=O)c2[nH]c(-c3ccc(OCC(=O)N[C@@H](C)c4ccccc4)cc3)nc2n(CCC)c1=O [Compound 25, (S)-2-(4-(2,6-dioxo-1,3-dipropyl-2,3,6,7-tetrahydro-1H-purin-8-yl)phenoxy)-N-(1-phenylethyl)acetamide]			
																CCNC(=O)[C@H]1O[C@@H](n2cnc3c(N)ncnc32)[C@H](O)[C@@H]1O [NECA, 5^′-N-ethylcarboxamidoadenosine]			No response

SMILES	Ki (human A2BAR [1]; [11]) [nM]	RT (human A2BAR [2]; [12])	Kd (human A2BAR [2]) [nM]	koff (human A2BAR [2]) [s⁻¹]	kon (human A2BAR [2]) [M⁻¹ s⁻¹]	A2BARs still occupied by ligand after the washing cycles (human A2BAR [3]) [%]	compound removed (washed away) during the washing procedure (human A2BAR [3]) [%]	washout - %AUC, 1x washed (NECA signaling) [4] [%]	washout - %AUC, unwashed (NECA signaling) [4] [%]	Ki (A1 adenosine receptor [5]) [nM]	Ki (A1 adenosine receptor [6]) [nM]	Ki (A2A adenosine receptor [7]) [nM]	Ki (A2A adenosine receptor [8]) [nM]	Ki (A2B adenosine receptor [9]) [nM]	Ki (A2B adenosine receptor [10]) [nM]	Ki (A3 adenosine receptor) [nM]	Ki (human A2BAR [1]; Ki) [nM]	Kinetic KD (koff/kon) (human A2BAR [2]; [12])	response to NECA (CHO-spap cells)
CCCn1c(=O)c2[nH]c(-c3ccc(OCC(=O)Nc4ccc(N=C=S)cc4)cc3)nc2n(CCC)c1=O [Compound 29, 2-(4-(2,6-dioxo-1,3-dipropyl-2,3,6,7-tetrahydro-1H-purin-8-yl)phenoxy)-N-(4-isothiocyanatophenyl)acetamide]		Covalent mechanism (see text)					18										9.28	Covalent mechanism (see text)	
